pIC50: −log10 of the molar value.
Legend:
hNav1.7 = target: T1, hNav1.7 (Homo sapiens, UniProt Q15858); experiment: Fluorescent (FRET) based sodium channel assay, hNav1.7; type: cell-based; conditions: HEK293 stably transfected with hNav1.7, 20 μM veratridine, read-out: hNav 1.7 IC50
T1 construct: expressed in transfected cells; host or cells: HEK293
Method: Two isoforms of the channel were examined: hNav1.5, a cardiac sodium channel associated with arrhythmias, and hNav1.7, an isoform found in the peripheral nervous system.
HEK293 cells stably transfected with either hNav1.5 or hNav1.7 were plated at approximately 11,000-20,000 cells/well in flat bottom, poly-D-lysine coated black-wall, clear-bottom, 384-well plates (Becton Dickinson, Bedford, Mass.), and incubated overnight at 37° C. in a 10% CO2 atmosphere in growth medium. Cells were washed with 0.03 mL of Dulbecco's phosphate buffered saline (D-PBS) containing calcium and magnesium. Cells were then incubated with 0.025 mL of a solution containing 10 μM CC2-DMPE and 0.02% pluronic acid in D-PBS with calcium and magnesium; supplemented with 10 mM glucose, and 10 mM Hepes-NaOH, pH 7.4. […] Afterwards, cells were incubated in the dark at 25° C. for 45 min with 0.025 mL of a solution containing 5 μM DiSBAC2(3) in VIPR-S, in the absence or presence of test compound. At the end of the incubation period, the plate was placed in a FLIPR TETRA instrument (MDS Analytical Technologies, Sunnyvale Calif.), illuminated at 390-420 nm, and fluorescence emissions were recorded at approximately 1 Hz at 460 and 580 nm. Following a 7 second baseline reading, 0.025 mL of VIPR-S containing 10 μM veratridine for Nav1.5 or 20 μM veratridine for Nav1.7 was added to each well, and the emissions of both dyes were recorded for an additional 33 seconds. The change in fluorescence resonance energy transfer (FRET) ratio (F/F0) was calculated as: F/F0=((A460/A580/(I460/I580) where A and I represent the readings after or before addition of veratridine, respectively, at the indicated wavelengths. For I, the readings from 2-5 seconds were averaged, and for A, readings from 3 seconds after the signal had reached a plateau level (usually within 30-40 s) were also averaged. Triplicate measurements were performed for each experimental condition and the data were averaged.

hERG potassium channels = target: T2, hERG potassium channels (Homo sapiens, UniProt Q12809); experiment: hERG binding assay ([35S]MK-499 displacement); conditions: [35S]MK-499, HEK-293 hERG membranes
T2 construct: expressed in transfected cells; host or cells: HEK-293 (membranes)
Excerpt: All four compounds were also counter-screened for human ether-a-go-go-related gene (hERG) activity against the radio-ligand MK-0499. Blockade of hERG K^+ channels is widely regarded as the predominant cause of drug-induced QT prolongation. (Aronov, A J Med Chem. 2006 Nov. 16; 49(23):6917-21).
MK-499, a potent hERG blocker, was used in a ligand binding assay to evaluate the binding of test compounds to hERG potassium channels as previously described (Wang, J et al. Am J Physiol Heart Circ Physiol, 2003, 284: H256-H267).^2 Test compounds were incubated with 0.05 nM of radiolabeled MK-499 ([35S]MK-499; specific Activity=1,279,010 μCi/μmol) in an assay buffer solution (70 mM NaCl, 60 mM KCl, 10 mM HEPES/NaOH (pH 7.4), 2 mM MgCl2, 1 mM CaCl2) also containing membranes isolated from HEK-293 cells stably expressing hERG channels in 96 well polypropylene deep-well assay plates at room temperature (25° C.) for >90 min. Assay plates were rinsed three time with buffer (130 mM NaCl, 10 mM HEPES/NaOH (pH 7.4), 2 mM MgCl2, 1 mM CaCl2) and the solution transferred to a Packard FilterMate Universal Harvester apparatus and filtered using PerkinElmer UniFilter-96 GF/C 96-well white microplates pre-soaked with 0.3% BSA (10 mL/L of 30% BSA). Plates were dried overnight at 37° C., or for 2 hrs at 56° C. The bottom of the plates were sealed and 0.025 mL of Microscint 0 was added to each well. The plates were top sealed and counted for 2 min/well in a Packard TopCount Scintillation counter. Test compounds were evaluated in a five point titration format using half-log steps from 0.3 μM to 30 μM. […] Less than 5% of the added radioactivity was retained on the filters. Assays were performed in triplicate.

site 2 of the VGSC = experiment: [3H]-BTX-B displacement assay at site 2; type: binding, rat
PC-3 cells [1] = experiment: PC-3 MTT cell viability assay; type: cell-based; conditions: Homo sapiens, read-out: GI50 ± SEM (10 μM), DPH and JDA-3-135 previously determined
Excerpt: Following the determination that compound CDPNS inhibits the VGSCs that are present in androgen independent PC-3 cells, a 3-(4,5-Dimethylthiazol-2-yl)-2,5-diphenyltetrazolium bromide (MTT) cell viability assay was utilized to measure the ability of compound CDPNS to inhibit PC-3 cell growth via VGSC blockade. In this experiment data yielded from CDPNS was compared to previously determined DPH and JDA-3-135 antiproliferation data (Table 10).

PC-3 cells [2] = experiment: PC-3 cell growth inhibition assay (WST-8); type: cell-based; conditions: Homo sapiens, WST-8, 48 hours
Method: The effect of compound 2 was studied on the proliferation of human androgen independent prostate cancer (PC-3) cells, using a cell viability assay with WST-8. […].
PC-3 cells were added to the wells of a 96 well plate at 7500 cells per well in 100 uL of RPMI medium with 10% serum and allowed to plate down overnight. The medium was then removed and replaced with serum free medium containing the appropriate concentration of drug. DMSO concentration was kept below 1%. At this time WST-8 cell counting reagent was added to the control (T=0) wells and allowed to incubate for 2 hours and the absorbance was read at 450 nm to determine the starting number of cells per well. The plates were incubated for 48 hours, the medium was removed and the wells were washed with 100 uL of PBS. The PBS was removed that the wells were filled with 110 uL of serum free RPMI media containing the WST-8 reagent. After two hours of incubation, the plates absorbance was read at 450 nm and normalized to the control value.

[3] = Incidence of prostate cancer in epileptic men treated with sodium channel blockers; set-up: species or system human; conditions: 1427 epileptic men given drug vs 14270 control, 1994 to 2003
Excerpt: The incidence of prostate cancer in epileptic men treated with sodium channel blockers was studied from 1994 to 2003. In the study, 1427 epileptic men were given phenyloin as a sodium channel blocker while 14270 epileptic men were not given a sodium channel blocker (control).

neuronal VGSCs = conditions: read-out: inactivated state-dependent blocking activity IC50 in neuronal VGSCs; cited from earlier work

T2 sequence (Q12809 whole entry): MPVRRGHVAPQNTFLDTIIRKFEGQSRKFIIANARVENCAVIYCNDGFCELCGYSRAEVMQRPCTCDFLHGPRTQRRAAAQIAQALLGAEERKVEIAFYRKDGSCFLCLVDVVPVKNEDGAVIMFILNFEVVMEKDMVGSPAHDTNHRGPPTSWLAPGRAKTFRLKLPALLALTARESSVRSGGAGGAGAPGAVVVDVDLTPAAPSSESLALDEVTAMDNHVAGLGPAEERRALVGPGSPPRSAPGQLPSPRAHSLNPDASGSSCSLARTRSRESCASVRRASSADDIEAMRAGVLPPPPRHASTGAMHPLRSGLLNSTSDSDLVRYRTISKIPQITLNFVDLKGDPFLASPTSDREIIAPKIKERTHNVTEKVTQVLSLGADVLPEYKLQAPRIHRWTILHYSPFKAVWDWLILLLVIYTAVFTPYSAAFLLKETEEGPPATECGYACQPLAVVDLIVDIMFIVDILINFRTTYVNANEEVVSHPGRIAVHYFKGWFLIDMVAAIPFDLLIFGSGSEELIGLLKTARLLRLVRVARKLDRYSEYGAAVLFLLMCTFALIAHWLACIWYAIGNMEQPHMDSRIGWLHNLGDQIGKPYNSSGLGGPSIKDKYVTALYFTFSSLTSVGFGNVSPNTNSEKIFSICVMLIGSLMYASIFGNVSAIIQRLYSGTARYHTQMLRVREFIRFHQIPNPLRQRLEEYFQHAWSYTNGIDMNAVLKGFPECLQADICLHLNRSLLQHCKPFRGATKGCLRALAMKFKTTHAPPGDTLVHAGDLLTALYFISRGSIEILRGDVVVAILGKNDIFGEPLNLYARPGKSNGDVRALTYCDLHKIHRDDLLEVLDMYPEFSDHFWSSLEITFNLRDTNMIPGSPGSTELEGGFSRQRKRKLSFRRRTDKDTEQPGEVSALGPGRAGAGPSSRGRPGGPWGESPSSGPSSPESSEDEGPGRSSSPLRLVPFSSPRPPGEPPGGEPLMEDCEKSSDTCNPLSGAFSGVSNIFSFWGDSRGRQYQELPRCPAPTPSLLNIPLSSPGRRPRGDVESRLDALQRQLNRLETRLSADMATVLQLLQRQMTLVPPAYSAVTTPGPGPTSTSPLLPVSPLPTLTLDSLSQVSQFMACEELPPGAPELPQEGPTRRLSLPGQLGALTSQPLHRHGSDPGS
T1 sequence (Q15858 whole entry): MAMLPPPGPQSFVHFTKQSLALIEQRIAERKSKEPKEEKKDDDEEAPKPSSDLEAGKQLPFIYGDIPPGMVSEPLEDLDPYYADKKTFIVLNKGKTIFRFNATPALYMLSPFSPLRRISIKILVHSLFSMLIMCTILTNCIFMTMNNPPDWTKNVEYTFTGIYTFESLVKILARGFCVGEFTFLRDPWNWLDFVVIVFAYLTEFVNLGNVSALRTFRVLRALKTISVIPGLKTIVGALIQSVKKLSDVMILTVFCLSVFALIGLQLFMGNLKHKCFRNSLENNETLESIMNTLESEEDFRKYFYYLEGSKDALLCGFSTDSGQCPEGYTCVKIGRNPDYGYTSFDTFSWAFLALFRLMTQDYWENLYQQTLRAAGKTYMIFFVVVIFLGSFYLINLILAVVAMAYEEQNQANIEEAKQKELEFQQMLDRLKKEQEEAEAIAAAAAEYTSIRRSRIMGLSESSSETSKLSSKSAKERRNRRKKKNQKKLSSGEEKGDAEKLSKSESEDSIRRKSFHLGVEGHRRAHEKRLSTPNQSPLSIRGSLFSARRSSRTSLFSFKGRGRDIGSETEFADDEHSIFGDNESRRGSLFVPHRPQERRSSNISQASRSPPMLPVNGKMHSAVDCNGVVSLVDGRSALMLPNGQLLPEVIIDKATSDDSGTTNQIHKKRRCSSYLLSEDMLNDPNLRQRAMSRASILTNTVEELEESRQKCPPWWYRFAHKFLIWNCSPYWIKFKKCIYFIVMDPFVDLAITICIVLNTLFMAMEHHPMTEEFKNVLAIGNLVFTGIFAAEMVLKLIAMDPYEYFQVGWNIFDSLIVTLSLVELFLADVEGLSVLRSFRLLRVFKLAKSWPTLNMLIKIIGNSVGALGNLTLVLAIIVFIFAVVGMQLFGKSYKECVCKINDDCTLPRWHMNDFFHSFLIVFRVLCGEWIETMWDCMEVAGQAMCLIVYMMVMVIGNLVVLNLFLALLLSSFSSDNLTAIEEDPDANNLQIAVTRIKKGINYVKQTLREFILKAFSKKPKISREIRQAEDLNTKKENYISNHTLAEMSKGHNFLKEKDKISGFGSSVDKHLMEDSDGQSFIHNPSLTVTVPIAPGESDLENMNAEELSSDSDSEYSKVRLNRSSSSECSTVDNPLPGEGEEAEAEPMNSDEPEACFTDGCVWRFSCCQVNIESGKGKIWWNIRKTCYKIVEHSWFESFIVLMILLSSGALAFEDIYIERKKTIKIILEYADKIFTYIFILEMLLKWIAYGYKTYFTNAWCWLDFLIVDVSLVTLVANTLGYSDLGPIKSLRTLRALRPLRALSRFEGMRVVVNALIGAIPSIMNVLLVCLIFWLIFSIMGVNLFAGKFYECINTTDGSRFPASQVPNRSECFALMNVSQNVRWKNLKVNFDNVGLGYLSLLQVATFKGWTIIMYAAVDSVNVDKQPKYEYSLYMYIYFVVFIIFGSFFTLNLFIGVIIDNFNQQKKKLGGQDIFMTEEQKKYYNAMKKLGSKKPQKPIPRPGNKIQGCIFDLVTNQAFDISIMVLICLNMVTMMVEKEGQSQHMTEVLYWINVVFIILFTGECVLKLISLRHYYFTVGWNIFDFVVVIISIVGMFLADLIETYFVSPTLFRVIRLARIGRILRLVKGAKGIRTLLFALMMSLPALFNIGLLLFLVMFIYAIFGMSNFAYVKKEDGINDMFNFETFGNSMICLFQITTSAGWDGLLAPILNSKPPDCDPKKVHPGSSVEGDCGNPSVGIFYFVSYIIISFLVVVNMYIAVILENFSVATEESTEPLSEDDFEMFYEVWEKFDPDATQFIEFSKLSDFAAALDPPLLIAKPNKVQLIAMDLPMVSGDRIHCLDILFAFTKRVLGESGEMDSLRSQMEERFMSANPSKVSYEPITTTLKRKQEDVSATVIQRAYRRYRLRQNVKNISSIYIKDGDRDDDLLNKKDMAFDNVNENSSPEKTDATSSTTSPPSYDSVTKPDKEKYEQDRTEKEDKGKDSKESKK

With `O=C1NC(=O)C(c2ccccc2)(c2ccccc2)N1` [DPH, Diphenylhydantoin, reference compound] as the compound, how does the pIC50 (hNav1.7) read?
The pIC50 was < 4.00.

What about the “% inhibition for hERG assay, 0.3 μM” value (hERG potassium channels; 0.3 μM) of the same compound?
The value was 9%.

And the “% inhibition for hERG assay, 1 μM” value (hERG potassium channels; 1 μM)?
Its value is 20%.

What about the “% inhibition for hERG assay, 3 μM” value (hERG potassium channels; 3 μM) of the same compound?
The value was 28%.

What about the “% inhibition for hERG assay, 10 μM” value (hERG potassium channels; 10 μM) of the same compound?
Its value is 17%.

And the “% inhibition for hERG assay, 30 μM” value (hERG potassium channels; 30 μM)?
Its value is 40%.

What about the “% [3H]-BTX Inhibition (40 μM)” value (site 2 of the VGSC; 40 μM, rat brain synaptoneurosomes, Table 9) of the same compound?
The value was 30.4 ± 3.3%.

And the “% [3H]-BTX Displacement (40 μm)” value (site 2 of the VGSC; 40 μm, rat brain synaptoneurosomes, Table 13)?
The value was 27.7%.

What about the “[3H]-BTX-B Binding Data, Displacement %” value (site 2 of the VGSC; Screen at 40 μM, 2 replicates, referenced to Aconitine) of the same compound?
The value was 50%.

What about the GI50 (PC-3 cells [1]) of the same compound?
The GI50 was > 100 µM.

And the GI50 (PC-3 cells [2]; read-out: GI50 in PC3 prostate cancer cells)?
The GI50 was > 100 µM.

What about the GI50 (PC-3 cells [2]; read-out: PC3 GI50 (μg)) of the same compound?
The GI50 was > 100 µM.

And the “less likely to be diagnosed with prostate cancer” value [3]?
Its value is 40%.

What about the pIC50 (neuronal VGSCs) of the same compound?
The pIC50 was 4.40.

From patent publication US8816095B2, “Na channels, disease, and related assays and compositions” (Georgetown University, priority 2008, dated 2014)
